Test results as given in paper PMC6017705, “Discovery of N-(Naphtho[1,2-b]Furan-5-Yl) Benzenesulfonamides as Novel Selective Inhibitors of Triple-Negative Breast Cancer (TNBC)” (Molecules : A Journal of Synthetic Chemistry and Natural …, 2018).

What was measured:
MCF-7 = experiment: Cell viability assay (CCK-8), MCF-7; assay type: cell-based, human; conditions: Homo sapiens; for IC50: MCF7, 72 h, non-TNBC breast cancer cell line, CCK-8, 72 h; for inhibition at 5 µg/mL: MCF7
Procedure: (§1) Four human TNBC cell lines (MDA-MB-231, MDA-MB-453, SUM-159, and BT-20), a non-TNBC breast cancer cell line (MCF-7) and a normal mammary epithelial cell line (MCF-10A) were cultured with DMEM (phenol free) supplemented with 2.5% CS-FBS and 1% L-Glu. 1.2 × 10^3 of cells were seeded into 384-well microplates and maintained for 24 h in an incubator at 37 °C in a 5% CO2, saturated humidified atmosphere. […] […] Then CCK-8 solution was added into cells and incubated for another 4 h. Absorbance was measured with a Microplate Reader at 450/600 nm. The IC50 values of the compounds on TNBC cell lines were derived using GraphPad Prism 5.0 (GraphPad Software, Inc., La Jolla, CA, USA).

MDA-MB-231 = experiment: Cell viability assay (CCK-8), MDA-MB-231; assay type: cell-based, human; conditions: for IC50 / inhibition at 5 µg/mL: Homo sapiens; for IC50: MDA-MB-231, 72 h, TNBC cell line, CCK-8, 72 h, 0.156 to 40 μM; for inhibition at 5 µg/mL: MDA-MB-231
Procedure: as §1

SUM-159 = experiment: Cell viability assay (CCK-8), SUM-159; assay type: cell-based, human; conditions: for IC50 / inhibition at 5 µg/mL: Homo sapiens; for IC50: SUM159, 72 h, TNBC cell line, CCK-8, 72 h, 0.156 to 40 μM; for inhibition at 5 µg/mL: SUM159
Procedure: as §1

BT-20 = experiment: Cell viability assay (CCK-8), BT-20; assay type: cell-based; conditions: Homo sapiens, TNBC cell line, CCK-8, 72 h, 0.156 to 40 μM
Procedure: (§2) Four human TNBC cell lines (MDA-MB-231, MDA-MB-453, SUM-159, and BT-20), a non-TNBC breast cancer cell line (MCF-7) and a normal mammary epithelial cell line (MCF-10A) were cultured with DMEM (phenol free) supplemented with 2.5% CS-FBS and 1% L-Glu. 1.2 × 10^3 of cells were seeded into 384-well microplates and maintained for 24 h in an incubator at 37 °C in a 5% CO2, saturated humidified atmosphere. Different compounds were added into cells with 9 concentrations from 0.156 to 40 μM for 72 h. […] Then CCK-8 solution was added into cells and incubated for another 4 h. Absorbance was measured with a Microplate Reader at 450/600 nm. The IC50 values of the compounds on TNBC cell lines were derived using GraphPad Prism 5.0 (GraphPad Software, Inc., La Jolla, CA, USA).

MDA-MB-453 = experiment: Cell viability assay (CCK-8), MDA-MB-453; assay type: cell-based; conditions: Homo sapiens, TNBC cell line, CCK-8, 72 h, 0.156 to 40 μM
Procedure: as §2

SMILES | inhibition at 5 µg/mL (MCF-7) [%] | inhibition at 5 µg/mL (MDA-MB-231) [%] | inhibition at 5 µg/mL (SUM-159) [%] | also measured
Cc1sc(N)c2c(=O)oc3c4ccccc4ccc3c12 [Compound B09] | – | – | – | IC50 (MCF-7): 1.45 µM; growth-inhibitory effect on MDA-MB-231 (in words) (MDA-MB-231): almost no growth-inhibitory effect; IC50 (MDA-MB-231): ~20 µM; growth-inhibitory effect on SUM-159 (in words) (SUM-159): almost no growth-inhibitory effect; IC50 (SUM-159): > 40 µM
CCOc1ccc(S(=O)(=O)Nc2cc3c(C(=O)OCCOC)c(C)oc3c3ccccc23)cc1 [Compound 3-23] | 14.7 | 62 | 49.1 | –
CCCc1oc2c(cc(NS(=O)(=O)c3ccc(OC)cc3)c3ccccc32)c1C(=O)OCC [Compound 3-28] | 33.4 | 61.9 | 46 | IC50 (MDA-MB-231): > 40 µM; IC50 (SUM-159): 14.4 µM
COC(=O)c1c(C)oc2c1cc(NS(=O)(=O)c1ccc3ccccc3c1)c1ccccc12 [Compound 3-7] | -4.73 | 0.431 | 0.085 | –
COC(=O)c1c(C)oc2c1cc(NS(=O)(=O)c1ccc(Br)cc1)c1ccccc12 [Compound 3-29] | 14.5 | 45 | 1.32 | –
COC(=O)c1c(C)oc2c1cc(NS(=O)(=O)c1cc(C)c(C)cc1C)c1ccccc12 [Compound 3-24] | 34.9 | 46.6 | 0.233 | –
COC(=O)c1c(C)oc2c1cc(NS(=O)(=O)c1ccc(C)cc1)c1ccccc12 [Compound 3-14] | 10.2 | 62.8 | 48.2 | –
CCOC(=O)c1c(C)oc2c1cc(NS(=O)(=O)c1c(C)cc(C)cc1C)c1ccccc12 [Compound 3-35] | 24.5 | 33.9 | 0.352 | –
CCOC(=O)c1c(C)oc2c1cc(NS(=O)(=O)c1ccc3ccccc3c1)c1ccccc12 [Compound 3-6] | 7.72 | 43.4 | 0.292 | –
Cc1oc2c(cc(NS(=O)(=O)c3ccccc3)c3ccccc32)c1C(=O)OCc1ccccc1 [Compound 3-26] | 25.6 | 51 | 1.58 | –
Cc1oc2c(cc(NS(=O)(=O)c3ccc(C(C)C)cc3)c3ccccc32)c1C(=O)O [Compound 3-32] | -7.57 | 24.7 | -0.964 | –
COC(=O)c1c(C)oc2c1cc(NS(=O)(=O)c1ccc(F)cc1)c1ccccc12 [Compound 3-10] | 34.5 | 64.5 | 35.5 | –
CCCc1oc2c(cc(NS(=O)(=O)c3ccc(C(=O)O)cc3)c3ccccc32)c1C(=O)OCC [Compound 3-40] | 2.52 | 12.5 | 0 | –
COC(=O)c1c(C)oc2c1cc(NS(=O)(=O)c1cc(C)ccc1C)c1ccccc12 [Compound 3-15] | 18.5 | 45.6 | 0.037 | –
CCCCCOC(=O)c1c(C)oc2c1cc(NS(=O)(=O)c1ccc(OC)cc1)c1ccccc12 [Compound 3-25] | 48.3 | 39.5 | 61.9 | –
COC(=O)c1c(C)oc2c1cc(NS(=O)(=O)c1ccc(C(C)C)cc1)c1ccccc12 [Compound 3-4] | 14.2 | 37.8 | -0.319 | –
CCOC(=O)c1c(C)oc2c1cc(NS(=O)(=O)c1ccc(C(C)C)cc1)c1ccccc12 [Compound 3-31] | 2.95 | 32.1 | -1.33 | –
COC(=O)c1c(C)oc2c1cc(NS(=O)(=O)c1ccc(C(=O)O)cc1)c1ccccc12 [Compound 3-34] | 2.85 | 11 | -0.042 | –
CCOC(=O)c1c(C)oc2c1cc(NS(=O)(=O)c1ccc(CC)cc1)c1ccccc12 [Compound 3-11] | 13 | 41.1 | 0.175 | –
CC(=O)Oc1c(SCC(=O)O)cc(NS(=O)(=O)c2ccc(F)cc2)c2ccccc12 [Compound 2-3] | – | – | – | IC50 (BT-20): > 40 µM; IC50 (MDA-MB-453): 8.59 µM; IC50 (MCF-7): > 40 µM; IC50 (MDA-MB-231): 7.99 µM; IC50 (SUM-159): > 40 µM
COC(=O)c1c(C)oc2c1cc(NS(=O)(=O)c1ccc(F)cc1C)c1ccccc12 [Compound 3-18] | 33.2 | 59.4 | 51.4 | IC50 (MDA-MB-231): 5.2 µM; IC50 (SUM-159): 24.2 µM

SMILES | inhibition at 5 µg/mL (MCF-7) [%] | inhibition at 5 µg/mL (MDA-MB-231) [%] | inhibition at 5 µg/mL (SUM-159) [%] | also measured
CCOC(=O)c1c(C)oc2c1cc(NS(=O)(=O)c1ccc(C)cc1)c1ccccc12 [Compound 3-36] | -4.38 | 16.8 | -0.123 | –
Cc1oc2c(cc(NS(=O)(=O)c3ccc(Cl)cc3)c3ccccc32)c1C(=O)O [Compound 3-1] | -12.2 | 31.4 | -0.754 | –
COC(=O)c1c(C)oc2c1cc(NS(=O)(=O)c1ccc(C)cc1C)c1ccccc12 [Compound 3-5] | 22 | 41.1 | 0.757 | –
COC(=O)c1c(C)oc2c1cc(NS(=O)(=O)c1cccc3cccnc13)c1ccccc12 [Compound 3-27] | 35.5 | 48.2 | 10.2 | –
COc1ccc(S(=O)(=O)Nc2cc(SCC(=O)O)c(O)c3ccccc23)cc1 [Compound C10] | – | – | – | IC50 (BT-20): 10.6 µM; IC50 (MDA-MB-453): 2.3 µM
CC(C)c1ccc(S(=O)(=O)Nc2cc(SCC(=O)O)c(O)c3ccccc23)cc1 [Compound 2-7] | – | – | – | IC50 (BT-20): > 40 µM; IC50 (MDA-MB-453): 3.65 µM; IC50 (MCF-7): > 40 µM; IC50 (MDA-MB-231): 3.95 µM; IC50 (SUM-159): > 40 µM
CCc1ccc(S(=O)(=O)Nc2cc3c(C(=O)OC)c(C)oc3c3ccccc23)cc1 [Compound 3-20] | 31.2 | 53.5 | 65.4 | IC50 (MDA-MB-231): 10 µM; IC50 (SUM-159): 17 µM
CCc1ccc(S(=O)(=O)Nc2cc(SCC(=O)O)c(O)c3ccccc23)cc1 [Compound 2-1] | – | – | – | IC50 (BT-20): 13.3 µM; IC50 (MDA-MB-453): 3.19 µM; IC50 (MCF-7): 14 µM; IC50 (MDA-MB-231): 4.36 µM; IC50 (SUM-159): 30.8 µM
COC(=O)c1c(C)oc2c1cc(NS(=O)(=O)c1c(C)cc(C)cc1C)c1ccccc12 [Compound 3-38] | 14.8 | 50.6 | 1.35 | –
Cc1cc(F)ccc1S(=O)(=O)Nc1cc2c(C(=O)O)c(C)oc2c2ccccc12 [Compound 3-19] | 16.3 | 19.3 | 0.38 | –
COC(=O)c1c(C)oc2c1cc(NS(=O)(=O)c1ccccc1)c1ccccc12 [Compound 3-30] | 29.3 | 50.9 | 0.862 | –
CCOC(=O)c1c(C)oc2c1cc(NS(=O)(=O)c1ccc(C(=O)O)cc1)c1ccccc12 [Compound 3-13] | 5.14 | 19.6 | -0.635 | –
COC(=O)c1c(C)oc2c1cc(NS(=O)(=O)c1ccc(Cl)cc1)c1ccccc12 [Compound 3-33] | 2.82 | 32.8 | -0.507 | –
COc1ccc(-c2oc3c(CCC(C)(C)O)c(O)cc(O)c3c(=O)c2O)cc1 [IC-163, reference compound] | – | – | – | IC50 (BT-20): > 40 µM; IC50 (MDA-MB-453): > 40 µM; IC50 (MCF-7): > 40 µM; IC50 (MDA-MB-231): > 40 µM; IC50 (SUM-159): > 40 µM
Cc1ccc(S(=O)(=O)Nc2cc(SCC(=O)O)c(O)c3ccccc23)cc1 [Compound 2-6] | – | – | – | IC50 (BT-20): 25 µM; IC50 (MDA-MB-453): 3.36 µM; IC50 (MCF-7): > 40 µM; IC50 (MDA-MB-231): 4.97 µM; IC50 (SUM-159): 19.2 µM
CCc1ccc(S(=O)(=O)Nc2cc3c(C(=O)O)c(C)oc3c3ccccc23)cc1 [Compound 3-8] | -6.71 | -1.13 | 0.221 | –
CCOC(=O)c1c(C)oc2c1cc(NS(=O)(=O)c1ccc(C)cc1C)c1ccccc12 [Compound 3-16] | 43.4 | 48.2 | 0.732 | –
CCOC(=O)c1c(-c2ccccc2)oc2c1cc(NS(=O)(=O)c1ccc(CC)cc1)c1ccccc12 [Compound 3-22] | 2.24 | 53.6 | -0.556 | –
CCOC(=O)c1c(C)oc2c1cc(NS(=O)(=O)c1cc(C)c(C)cc1C)c1ccccc12 [Compound 3-2] | 17.7 | 24.3 | -0.884 | –
Cc1oc2c(cc(NS(=O)(=O)c3ccc(F)cc3)c3ccccc32)c1C(=O)OC(C)C [Compound 3-39] | 4.95 | 42.3 | -0.193 | –
